Data from patent publication US20240158368A1, “Pyrrolidine Main Protease Inhibitors as Antiviral Agents” (AbbVie Inc., priority 2022, published 2024).

Tests used:
[1] = in vitro; details: human, pH 7.4
[2] = in vitro; details: PAMPA
[3] = molecular target: MERS Mpro (Middle East respiratory syndrome-related coronavirus (isolate United Kingdom/H123990006/2012) (MERS-CoV) (Betacoronavirus England 1), UniProt K9N7C7); assay: biochemical
[4] = in vitro; details: rat, pH 7.4
[5] = molecular target: SARS-CoV-2 Mpro (Severe acute respiratory syndrome coronavirus 2 (2019-nCoV) (SARS-CoV-2), UniProt P0DTD1); format: biochemical
[6] = molecular target: 229E Mpro (Human coronavirus 229E (HCoV-229E), UniProt P0C6X1); format: biochemical
Chain of 229E Mpro (P0C6X1 2966-3267 limits assumed): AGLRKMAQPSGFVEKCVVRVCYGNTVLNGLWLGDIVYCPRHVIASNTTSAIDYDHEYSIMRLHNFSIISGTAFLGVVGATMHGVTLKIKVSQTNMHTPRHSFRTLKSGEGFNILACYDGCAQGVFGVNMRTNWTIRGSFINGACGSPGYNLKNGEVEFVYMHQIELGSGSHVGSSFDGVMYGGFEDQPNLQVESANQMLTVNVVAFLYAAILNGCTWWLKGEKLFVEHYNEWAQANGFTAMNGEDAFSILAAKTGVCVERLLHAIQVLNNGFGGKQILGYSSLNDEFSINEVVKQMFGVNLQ

[7] = molecular target: OC43 Mpro (Human coronavirus OC43 (HCoV-OC43), UniProt P0C6X6); format: biochemical
Chain of OC43 Mpro (P0C6X6 3247-3549 limits assumed): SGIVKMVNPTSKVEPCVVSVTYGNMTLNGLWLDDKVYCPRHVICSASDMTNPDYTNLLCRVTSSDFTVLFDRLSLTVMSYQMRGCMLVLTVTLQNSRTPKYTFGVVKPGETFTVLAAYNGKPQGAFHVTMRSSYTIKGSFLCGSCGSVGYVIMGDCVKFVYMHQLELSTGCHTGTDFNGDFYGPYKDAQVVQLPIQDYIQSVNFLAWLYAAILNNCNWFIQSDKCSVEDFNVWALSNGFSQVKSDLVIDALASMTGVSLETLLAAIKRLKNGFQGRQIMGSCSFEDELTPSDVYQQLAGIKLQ

[8] = tested on: SARS-CoV-2 (strain USA-WA1/2020); assay: microbe, parasite or virus in culture; format: cell-based; details: Severe acute respiratory syndrome coronavirus 2; HeLa-ACE2 cells; read-out: Antiviral CoV-2 EC50

Chain of MERS Mpro (K9N7C7 3248-3553 limits assumed): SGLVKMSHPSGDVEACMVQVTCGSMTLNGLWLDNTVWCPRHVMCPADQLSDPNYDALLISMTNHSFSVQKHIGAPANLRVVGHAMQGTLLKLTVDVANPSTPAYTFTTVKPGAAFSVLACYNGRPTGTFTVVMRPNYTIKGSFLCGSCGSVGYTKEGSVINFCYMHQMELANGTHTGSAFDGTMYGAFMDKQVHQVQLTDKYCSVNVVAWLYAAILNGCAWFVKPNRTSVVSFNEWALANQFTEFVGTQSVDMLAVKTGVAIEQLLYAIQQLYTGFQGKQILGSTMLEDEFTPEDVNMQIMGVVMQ

Row | SMILES | CLint scaled ([1]; microsomes) [mL/min/kg] | Papp [2] [×10⁻⁶ cm/s] | EC50 [3] [nM] | CLint scaled ([4]; microsomes) [mL/min/kg] | EC50 [5] [nM] | EC50 [6] [nM] | EC50 [7] [nM] | CLint scaled [1] [mL/min/kg] | CLint scaled [4] [mL/min/kg] | EC50 [8] [nM]
1 | Cc1cc(C(=O)N[C@@H]2CCN(c3c(C(=O)N4CCOCC4)cc(C#N)cc3C(F)F)C2)c(F)c(=O)[nH]1 [Compound 12] | < 25 | 0.23 | 2.65 | < 41.7 | 1.02 | 90.4 | 23.4 | – | – | –
2 | COCCN1CCN(C(=O)c2cc(C#N)cc(C(F)(F)F)c2N2CC[C@@H](NC(=O)c3cc(=O)[nH]c4c(F)cccc34)C2)CC1 [Compound 19] | – | 6.68 | 1.44 | – | – | – | – | < 36.7 | 200 | –
3 | Cc1cc(C(=O)N[C@@H]2CCN(c3c(C(=O)NCC(C)C)cc(C#N)cc3C(F)(F)F)C2)cc(=O)[nH]1 [Compound 29] | < 30 | 3.51 | 8.85 | < 51.7 | 13.9 | 682 | 378 | – | – | –
4 | N#Cc1cc(C(=O)N2CCCCC2)c(N2CC[C@@H](NC(=O)c3cc(=O)[nH]c4c(F)cccc34)C2)c(C(F)(F)F)c1 [Compound 15] | – | 15.2 | 3.28 | – | – | – | – | 76.7 | 220 | –
5 | O=C(N[C@@H]1CCN(c2c(OC(F)(F)F)cc(Br)cc2C(=O)N2CCOCC2)C1)c1cc(=O)[nH]c2c(F)cccc12 [Compound 42] | 125 | 14.7 | 1.05 | 482 | 0.45 | 3.58 | 1.4 | – | – | 8.2
6 | Cc1[nH]c(=O)c(F)c(C(=O)N[C@@H]2CCN(c3c(C(=O)N4CCOCC4)cc(C#N)cc3C(F)(F)F)C2)c1Cl [Compound 11] | – | 0.49 | 1.63 | < 61.7 | 0.73 | 5.31 | 10.3 | – | – | –
7 | O=C(N[C@@H]1CCN(c2c(C(=O)N3CC(F)(F)C3)cc(Br)cc2C(F)(F)F)C1)c1cc(=O)[nH]c2c(F)cccc12 [Compound 70] | 205 | 13.9 | 1.96 | 845 | 1.02 | 33.7 | 11.1 | – | – | –
8 | N#Cc1cc(C(=O)N2CCNC(=O)C2)c(N2CC[C@@H](NC(=O)c3cc(=O)[nH]c4c(F)cccc34)C2)c(C(F)(F)F)c1 [Compound 27] | < 35 | 0.11 | 1.36 | < 58.3 | 0.63 | – | 8.72 | – | – | 2800
9 | C[C@@]12COC[C@@H]1CN(C(=O)c1cc(C#N)cc(C(F)(F)F)c1N1CC[C@@H](NC(=O)c3cc(=O)[nH]c4c(F)cccc34)C1)C2 [Compound 16] | – | 7.38 | 1.46 | – | – | – | – | 93.3 | 313 | –
10 | O=C(N[C@@H]1CCN(c2c(C(=O)N3CCOCC3)cc(Br)cc2C(F)(F)F)C1)c1c(F)c(=O)[nH]c2ccccc12 [Compound 53] | 217 | 8.9 | 1.86 | 615 | 0.6 | 1.98 | 0.71 | – | – | –
11 | N#Cc1cc(C(=O)N2C[C@H]3COC[C@H]3C2)c(N2CC[C@@H](NC(=O)c3cc(=O)[nH]c4c(F)cccc34)C2)c(C(F)(F)F)c1 [Compound 18] | – | 7.19 | 1.35 | – | – | – | – | 38.3 | 95 | 13.6
12 | COCCN(C)C(=O)c1cc(Br)cc(C(F)(F)F)c1N1CC[C@@H](NC(=O)c2cc(=O)[nH]c3c(F)cccc23)C1 [Compound 72] | 562 | 19.6 | 2.83 | 1280 | 1.11 | 39 | 19.2 | – | – | –
13 | N#Cc1cc(C(=O)N2CCOCC2)c(N2CC[C@H](NC(=O)c3cc(=O)[nH]c4c(F)cccc34)C2)c(C(F)(F)F)c1 [Compound 4] | < 25 | 5.55 | – | < 41.7 | – | – | – | – | – | –
14 | O=C(N[C@@H]1CCN(c2c(C(=O)N3CCC(F)(F)C3)cc(Br)cc2C(F)(F)F)C1)c1cc(=O)[nH]c2c(F)cccc12 [Compound 69] | 303 | 14.5 | 1.76 | 1040 | 0.67 | 15.5 | 4.92 | – | – | –
15 | O=C(N[C@@H]1CCN(c2c(C(=O)N3CCCC3)cc(Br)cc2C(F)(F)F)C1)c1cc(=O)[nH]c2c(F)cccc12 [Compound 68] | 317 | 14.7 | 1.83 | 1120 | 0.6 | 10.4 | 3.55 | – | – | –
16 | CCS(=O)(=O)N1CCN(C(=O)c2cc(C#N)cc(C(F)(F)F)c2N2CC[C@@H](NC(=O)c3cc(=O)[nH]c4c(F)cccc34)C2)CC1 [Compound 25] | – | 2.06 | 1.41 | – | – | – | – | – | – | –
17 | O=C(N[C@@H]1CCN(c2c(C(=O)N3CCCCC3)cc(Br)cc2C(F)(F)F)C1)c1cc(=O)[nH]c2c(F)cccc12 [Compound 64] | 272 | 14.9 | 1.38 | 1070 | 0.53 | 9.61 | 2.87 | – | – | –
18 | N#Cc1cc(C(=O)N2CCCC2)c(N2CC[C@@H](NC(=O)c3cc(=O)[nH]c4c(F)cccc34)C2)c(C(F)(F)F)c1 [Compound 20] | – | 13.8 | 1.68 | – | – | – | – | < 36.7 | 142 | –
19 | O=C(N[C@H]1CCN(c2c(C(=O)N3CCOCC3)cc(Br)cc2C(F)(F)F)C1)c1cc(=O)[nH]c2c(F)cccc12 [Compound 47] | 46.7 | 15.7 | – | 182 | – | – | – | – | – | –
20 | O=C(N[C@@H]1CCN(c2c(C(=O)N3CC4COCC4C3)cc(Br)cc2C(F)(F)F)C1)c1cc(=O)[nH]c2c(F)cccc12 (stereo partly shown) [Compound 66] | 297 | 15 | 1.28 | 607 | 0.48 | 5.78 | 2.06 | – | – | –
21 | N#Cc1cc(C(=O)N2CCC(F)(F)C2)c(N2CC[C@@H](NC(=O)c3cc(=O)[nH]c4c(F)cccc34)C2)c(C(F)(F)F)c1 [Compound 21] | – | 8.89 | 1.3 | – | – | – | – | 55 | 128 | –
22 | N#Cc1cc(C(=O)N2CC3CC(C2)O3)c(N2CC[C@@H](NC(=O)c3cc(=O)[nH]c4c(F)cccc34)C2)c(C(F)(F)F)c1 [Compound 17] | – | 4.6 | 1.27 | – | – | – | – | < 28.3 | < 48.3 | –
23 | O=C(N[C@@H]1CCN(c2c(OC(F)(F)F)cc(Cl)cc2C(=O)N2CCOCC2)C1)c1cc(=O)[nH]c2c(F)cccc12 [Compound 44] | 41.7 | 15.3 | 1.07 | 292 | 0.53 | 3.18 | 1.98 | – | – | –
24 | O=C(N[C@@H]1CC(=O)N(c2c(C(=O)N3CCOCC3)cc(Br)cc2C(F)(F)F)C1)c1c(F)c(=O)[nH]c2c(F)c(F)ccc12 [Compound 77] | < 38.3 | 3.46 | 1.69 | < 65 | 1.21 | 124 | 28.3 | – | – | –
25 | CN1CCN(C(=O)c2cc(C#N)cc(C3CC3)c2N2CC[C@@H](NC(=O)c3cc(=O)[nH]c4c(F)cccc34)C2)CC1 [Compound 41] | 147 | 0.59 | 0.82 | 280 | 0.45 | 2.16 | 0.69 | – | – | –
